Molecules are shown by their SMILES. ≈ marks a conversion by molar mass, not a printed value. Structures can show the parent of a compound that is named as a salt.

The first assay concerns Acinetobacter baumannii ATCC17961. Briefly: Antimicrobial susceptibility testing: 90% growth inhibitory concentration (IC90) determination. It counts as cell-based. The settings on record: Acinetobacter baumannii, ATCC17961, 16 h, 90% growth inhibitory concentration, Acinetobacter baumannii ATCC17961, Iso-Sensitest broth, OD 600 nm over 16 h; read-out: ATCC 17961 IC90. An outline of the steps:
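Growth inhibition derived in log phase from OD600 kinetics (every 20 minutes, 16h, 35±2° C) of ATCC17961 in Iso-Sensitest medium, inoculum ~5×10^5 CFU/ml. Compounds tested as twofold series, 10 points (e.g. 50 to 0.097 μM final); IC90 and IC50 reported.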
One may read the IC90 as the concentration needed for an effect of 90%. Take `COCCn1nc(C)c(-c2ccc(-c3cnc(C(=O)Nc4ccc(C(=O)N5CCN(C(=O)C[N+]6(C)C[C@@H](O)[C@H](O)C6)CC5)c(Cl)c4)n3C)c(F)c2F)c1C` (racemic) [Example C12, N-[3-chloro-4-[4-[2-[(3R,4R)-3,4-dihydroxy-1-methyl-pyrrolidin-1-ium-1-yl]acetyl]piperazine-1-carbonyl]phenyl]-5-[2,3-difluoro-4-[1-(2-methoxyethyl)-3,5-dimethyl-pyrazol-4-yl]phenyl]-1-methyl-imidazole-2-carboxamide; formate]: the IC90 came out at 153 nM.

In another assay the test system is Acinetobacter baumannii ATCC17978. Nature of the assay: Minimal Inhibitory Concentration (MIC) assay. It counts as cell-based. To be noted: Acinetobacter baumannii ATCC17978, CAMHB medium, 20 hours at 35±2° C., visual reading; read-out: MIC AB. ATCC17978. As to the method: Minimal Inhibitory Concentration Protocol (MIC) Assay:
Table 2 provides the in vitro potency of the compounds of present invention obtained against the strain Acinetobacter baumannii ATCC17978, which was assessed by an MIC (Minimal Inhibitory Concentration) assay as follows.
Test compounds were prepared from 10 mM DMSO stock solutions. The top dose was diluted from 10 mM to 2.5 mM by DMSO, followed by serial 2-fold 11 points dilutions in DMSO in a master plate (Greiner, Cat No: 651201). 2 μL compounds were transferred from the master plate into a new 96-well assay plate (Costar, 3599).
The growth medium […] Mueller Hinton Broth (CAMHIB) was prepared by adding 22 g powder (BD, 212322) in 1 L purified water, autoclaved, and supplemented with sterilized CaCl2 (20 mg per liter) and MgCl2 (10 mg per liter).
Vials of each of the test microorganisms were maintained frozen in the vapor phase of a liquid nitrogen freezer. Took out the bacterial strain ATCC 17978 from liquid nitrogen freezer, thawed it at room temperature, and diluted the bacterial in the CAMHB medium to achieve a final inoculum of 2×10^5 CFU/mL. 98 μL of the adjusted bacteria suspension was dispensed to the assay plate and pipetted 5 times.
Then the assay plates were incubated for 20 hours at 35±2° C. in ambient air with humidity. Following incubation, MIC […] value, the lowest concentration of drug that inhibits visible growth of the microorganism, was recorded by visual judgment of bacterial growth through magnification mirror of MIC reader, and the assay plates were photographed with Qcount system as image raw data. Meanwhile, the D600 of assay plates was recorded with SpectraMax Plus384 as GD raw data.
Broadly, the MIC is the least concentration at which growth counts as inhibited. `COCCn1ncc(-c2ccc(-c3cnc(C(=O)Nc4ccc(C(=O)N5CCN(C(=O)C6CCNCC6)CC5)c(Cl)c4)n3C)c(Cl)c2F)c1C` [Example E4, 5-[2-chloro-3-fluoro-4-[1-(2-methoxyethyl)-5-methyl-pyrazol-4-yl]phenyl]-N-[3-chloro-4-[4-(piperidine-4-carbonyl)piperazine-1-carbonyl]phenyl]-1-methyl-imidazole-2-carboxamide; formic acid]: the MIC stood at 0.57 µM (≈ 0.414 µg/mL).

Turning to `COCCn1nc(C)c(-c2ccc(-c3cnc(C(=O)Nc4ccc(C(=O)N5CCN(C(=O)C[N+]6(C)C[C@@H](O)[C@H](O)C6)CC5)c(Cl)c4)n3C)c(F)c2F)c1C` (racemic) [Example C12, N-[3-chloro-4-[4-[2-[(3R,4R)-3,4-dihydroxy-1-methyl-pyrrolidin-1-ium-1-yl]acetyl]piperazine-1-carbonyl]phenyl]-5-[2,3-difluoro-4-[1-(2-methoxyethyl)-3,5-dimethyl-pyrazol-4-yl]phenyl]-1-methyl-imidazole-2-carboxamide; formate], the MIC is 1.2 µM.

Regarding `Cc1n[nH]cc1-c1ccc(-c2cnc(C(=O)Nc3ccc(C(=O)N4CCN(C(=O)[C@@H]5C[C@@H](O)C[N+]5(C)C)CC4)c(Cl)c3)n2C)c(F)c1F` [Example D19, N-[3-chloro-4-[4-[(2S,4R)-4-hydroxy-1,1-dimethyl-pyrrolidin-1-ium-2-carbonyl]piperazine-1-carbonyl]phenyl]-5-[2,3-difluoro-4-(3-methyl-1H-pyrazol-4-yl)phenyl]-1-methyl-imidazole-2-carboxamide; formate], the MIC came to 1.07 µM.

`Cn1c(-c2ccc(-c3cn(CC(N)=O)nc3C(F)(F)F)c(F)c2F)cnc1C(=O)Nc1ccc(C(=O)N2CCN(C(=O)C3CC[N+](C)(C)CC3)CC2)c(Cl)c1` [Example F35, 5-[4-[1-(2-amino-2-oxo-ethyl)-3-(trifluoromethyl)pyrazol-4-yl]-2,3-difluoro-phenyl]-N-[3-chloro-4-[4-(1,1-dimethylpiperidin-1-ium-4-carbonyl)piperazine-1-carbonyl]phenyl]-1-methyl-imidazole-2-carboxamide; formate]: the MIC was determined as 1.24 µM.

For the compound `Cn1c(-c2ccc(-c3cn[nH]c3CCCCO)c(F)c2F)cnc1C(=O)Nc1ccc(C(=O)N2CCN(C(=O)C3CC[N+](C)(C)CC3)CC2)c(Cl)c1` [Example F21, N-[3-chloro-4-[4-(1,1-dimethylpiperidin-1-ium-4-carbonyl)piperazine-1-carbonyl]phenyl]-5-[2,3-difluoro-4-[5-(4-hydroxybutyl)-1H-pyrazol-4-yl]phenyl]-1-methyl-imidazole-2-carboxamide; formate], the MIC was 2.31 µM.

Turning to `Cc1nn(CC(=O)NC2CCCCO2)cc1-c1ccc(-c2cnc(C(=O)Nc3ccc(C(=O)N4CCN(C(=O)C5CC[N+](C)(C)CC5)CC4)c(Cl)c3)n2C)c(F)c1F` (centres unmarked) [Example G21, N-[3-chloro-4-[4-(1,1-dimethylpiperidin-1-ium-4-carbonyl)piperazine-1-carbonyl]phenyl]-5-[2,3-difluoro-4-[3-methyl-1-[2-oxo-2-(tetrahydropyran-2-ylamino)ethyl]pyrazol-4-yl]phenyl]-1-methyl-imidazole-2-carboxamide; formate], the MIC was 2.57 µM.

On to `Cn1c(-c2ccc(-c3cn[nH]c3-c3cscn3)c(F)c2F)cnc1C(=O)Nc1ccc(C(=O)N2CCN(C(=O)C3CC[N+](C)(C)CC3)CC2)c(Cl)c1` [Example I5, N-[3-chloro-4-[4-(1,1-dimethylpiperidin-1-ium-4-carbonyl)piperazine-1-carbonyl]phenyl]-5-[2,3-difluoro-4-(5-thiazol-4-yl-1H-pyrazol-4-yl)phenyl]-1-methyl-imidazole-2-carboxamide; formate], for which the MIC stood at 0.58 µM.

On to `Cc1nn(CC(=O)Nc2ccccc2)cc1-c1ccc(-c2cnc(C(=O)Nc3ccc(C(=O)N4CCN(C(=O)C5CC[N+](C)(C)CC5)CC4)c(Cl)c3)n2C)c(F)c1F` [Example G5, 5-[4-[1-(2-anilino-2-oxo-ethyl)-3-methyl-pyrazol-4-yl]-2,3-difluoro-phenyl]-N-[3-chloro-4-[4-(1,1-dimethylpiperidin-1-ium-4-carbonyl)piperazine-1-carbonyl]phenyl]-1-methyl-imidazole-2-carboxamide; formate], for which the MIC worked out at 0.32 µM.

For `COCCn1nc(C)c(-c2ccc(-c3cnc(C(=O)Nc4ccc(C(=O)N5CCN(C(=O)C[N+]6(C)C[C@@H](N)[C@H](OC)C6)CC5)c(Cl)c4)n3C)c(F)c2F)c1C` (mixture of isomers) [Example C13, N-[4-[4-[2-[(3R,4R)-3-amino-4-methoxy-1-methyl-pyrrolidin-1-ium-1-yl]acetyl]piperazine-1-carbonyl]-3-chloro-phenyl]-5-[2,3-difluoro-4-[1-(2-methoxyethyl)-3,5-dimethyl-pyrazol-4-yl]phenyl]-1-methyl-imidazole-2-carboxamide; formic acid; formate], the MIC is 1.22 µM.

As for `Cn1c(-c2ccc(-c3cn(C[C@H](O)CO)nc3C(F)(F)F)c(F)c2F)cnc1C(=O)Nc1ccc(C(=O)N2CCN(C(=O)C3CC[N+](C)(C)CC3)CC2)c(Cl)c1` [Example F8, N-[3-chloro-4-[4-(1,1-dimethylpiperidin-1-ium-4-carbonyl)piperazine-1-carbonyl]phenyl]-5-[4-[1-[(2S)-2,3-dihydroxypropyl]-3-(trifluoro-methyl)pyrazol-4-yl]-2,3-difluoro-phenyl]-1-methyl-imidazole-2-carboxamide; formate], the MIC came out at 1.41 µM.

With `Cc1nn(CC(=O)NC2CCOC2)cc1-c1ccc(-c2cnc(C(=O)Nc3ccc(C(=O)N4CCN(C(=O)C5CC[N+](C)(C)CC5)CC4)c(Cl)c3)n2C)c(F)c1F` (centres unmarked) [Example G20, N-[3-chloro-4-[4-(1,1-dimethylpiperidin-1-ium-4-carbonyl)piperazine-1-carbonyl]phenyl]-5-[2,3-difluoro-4-[3-methyl-1-[2-oxo-2-(tetrahydrofuran-3-ylamino)ethyl]pyrazol-4-yl]phenyl]-1-methyl-imidazole-2-carboxamide; formate], the MIC worked out at 2.52 µM.

On to `Cc1c(-c2ccc(-c3cnc(C(=O)Nc4ccc(C(=O)N5CCN(C(=O)C6CCNCC6)CC5)c(Cl)c4)n3C)c(F)c2F)cnn1CC(F)F` [Example E1, N-[3-chloro-4-[4-(piperidine-4-carbonyl)piperazine-1-carbonyl]phenyl]-5-[4-[1-(2,2-difluoroethyl)-5-methyl-pyrazol-4-yl]-2,3-difluoro-phenyl]-1-methyl-imidazole-2-carboxamide], for which the MIC is 0.56 µM (≈ 0.4 µg/mL).

The assay is the same for the next values; noted with them: Acinetobacter baumannii, ATCC17978, 20 h, read-out: MIC AB. ATCC17978.
Take `COCCn1ncc(-c2ccc(-c3cnc(C(=O)Nc4ccc(C(=O)N5CCN(C(=O)C6CC[N+](C)(CCS(N)(=O)=O)CC6)CC5)c(Cl)c4)n3C)c(F)c2F)c1C` (centres unmarked) [Example B34, N-[3-chloro-4-[4-[1-methyl-1-(2-sulfamoylethyl)piperidin-1-ium-4-carbonyl]piperazine-1-carbonyl]phenyl]-5-[2,3-difluoro-4-[1-(2-methoxyethyl)-5-methyl-pyrazol-4-yl]phenyl]-1-methyl-imidazole-2-carboxamide; formate]: the MIC worked out at 0.65 µM.

(Values after patent publication US12421211B2, “Heterocyclic compounds” (Hoffmann-La Roche Inc., priority 2021, dated 2025).)
